Consider 24 compounds from patent US11090304B2 (Amgen Inc., priority 2018, dated 2021).

Chain of GDP-bound KRAS protein (aa 1-169), containing both G12C and C118A amino acid substitutions (P01116 1-169 isoform P01116-2 G12C/C118A): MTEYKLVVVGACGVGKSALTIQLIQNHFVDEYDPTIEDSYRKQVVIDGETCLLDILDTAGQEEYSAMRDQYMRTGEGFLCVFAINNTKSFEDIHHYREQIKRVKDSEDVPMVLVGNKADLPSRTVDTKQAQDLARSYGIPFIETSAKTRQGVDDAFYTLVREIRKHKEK

The experiment has as its target GDP-bound KRAS protein (aa 1-169), containing both G12C and C118A amino acid substitutions (Homo sapiens, UniProt P01116, C118A/G12C). The experiment in a line: Coupled nucleotide exchange assay (SOS-mediated, AlphaScreen). The experiment is classed as biochemical. Conditions: 5 min compound pre-incubation.
As to `C=CC(=O)N1CCN(c2nc(=O)n(-c3ccccc3C)c3nc(OCCCC)c(Cl)cc23)[C@@H](C)C1` [Example 60-13, 7-butoxy-6-chloro-1-(2-methylphenyl)-4-((2S)-2-methyl-4-(2-propenoyl)-1-piperazinyl)pyrido[2,3-d]pyrimidin-2(1H)-one], the “Coupled exchange IC50 (5 min)” value is 85 | nda μM.
Regarding `C=CC(=O)N1CCN(c2nc(=O)n(-c3c(F)cccc3F)c3nc(Cl)c(Cl)cc23)[C@@H](C)C1` [Example 60-16, 6,7-dichloro-1-(2,6-difluorophenyl)-4-((2S)-2-Methyl-4-(2-propenoyl)-1-piperazinyl)pyrido[2,3-d]pyrimidin-2(1H)-one], the “Coupled exchange IC50 (5 min)” value was 46.1 | nda μM.
Turning to `C=CC(=O)N1CCN(c2nc(=O)n(-c3c(F)cccc3F)c3nc(-c4c(O)cccc4F)c(Cl)cc23)[C@@H](C)C1` [Example 60-17, 6-chloro-1-(2,6-difluorophenyl)-7-(2-fluoro-6-hydroxyphenyl)-4-((2S)-2-methyl-4-(2-propenoyl)-1-piperazinyl)pyrido[2,3-d]pyrimidin-2(1H)-one], the “Coupled exchange IC50 (5 min)” value was 5.74 | nda μM.
Under `C=CC(=O)N1CCN(c2nc(=O)n(CC3CCN(C(=O)OC(C)(C)C)CC3)c3nc(Cl)c(Cl)cc23)[C@@H](C)C1` [Example 60-25, 2-methyl-2-propanyl 4-((6,7-dichloro-4-((2S)-2-methyl-4-(2-propenoyl)-1-piperazinyl)-2-oxopyrido[2,3-d]pyrimidin-1(2H)-yl)methyl)-1-piperidinecarboxylate] stands 25.5 | nda μM; under `C=CC(=O)N1CCN(c2nc(=O)n(-c3ccccc3C(C)O)c3nc(-c4c(O)cccc4F)c(Cl)cc23)[C@@H](C)C1` (stereo partly drawn) [Example 60-27, 6-chloro-7-(2-fluoro-6-hydroxyphenyl)-1-(2-((1R)-1-hydroxyethyl)phenyl)-4-((2S)-2-methyl-4-(2-propenoyl)-1-piperazinyl)pyrido[2,3-d]pyrimidin-2(1H)-one | 6-chloro-7-(2-fluoro-6-hydroxyphenyl)-1-(2-((1S)-1-hydroxyethyl)phenyl)-4-((2S)-2-methyl-4-(2-propenoyl)-1-piperazinyl)pyrido[2,3-d]pyrimidin-2(1H)-one], 1.3 | nda μM; under `C=CC(=O)N1CCN(c2nc(=O)n(-c3c(C)cccc3C(C)C)c3nc(-c4c(O)cccc4F)c(F)cc23)C[C@@H]1C` [Example 63-1, 6-Fluoro-7-(2-fluoro-6-hydroxyphenyl)-1-(2-methyl-6-(2-propanyl)phenyl)-4-((3S)-3-methyl-4-(2-propenoyl)-1-piperazinyl)pyrido[2,3-d]pyrimidin-2(1H)-one], 2.15 | nda μM.
Under `C=CC(=O)N1CCN(c2nc(=O)n(-c3c(CC)cccc3CC)c3nc(N4CC[C@H](C)C4)c(Cl)cc23)[C@@H](C)C1` [Example 66-5, 6-chloro-1-(2,6-diethylphenyl)-4-((2S)-2-methyl-4-(2-propenoyl)-1-piperazinyl)-7-((3S)-3-methyl-1-pyrrolidinyl)pyrido[2,3-d]pyrimidin-2(1H)-one] stands 21.2 | nda μM.
With `C=CC(=O)N1CCN(c2nc(=O)n(-c3c(CC)cccc3CC)c3nc(N4CC[C@H](F)C4)c(Cl)cc23)[C@@H](C)C1` [Example 66-6, 6-chloro-1-(2,6-diethylphenyl)-7-((3S)-3-fluoro-1-pyrrolidinyl)-4-((2S)-2-methyl-4-(2-propenoyl)-1-piperazinyl)pyrido[2,3-d]pyrimidin-2(1H)-one], the “Coupled exchange IC50 (5 min)” value was 14.9 | nda μM.
Under `C=CC(=O)N1CCN(c2nc(=O)n(-c3c(CC)cccc3CC)c3nc(N4CC[C@@H](F)C4)c(Cl)cc23)[C@@H](C)C1` [Example 66-7, 6-chloro-1-(2,6-diethylphenyl)-7-((3R)-3-fluoro-1-pyrrolidinyl)-4-((2S)-2-methyl-4-(2-propenoyl)-1-piperazinyl)pyrido[2,3-d]pyrimidin-2(1H)-one] stands 88 | nda μM; under `C=CC(=O)N1CCN(c2nc(=O)n(-c3c(CC)cccc3CC)c3nc(N4CCC[C@@H]4CO)c(Cl)cc23)[C@@H](C)C1` [Example 66-9, 6-chloro-1-(2,6-diethylphenyl)-7-((2R)-2-(hydroxymethyl)-1-pyrrolidinyl)-4-((2S)-2-methyl-4-(2-propenoyl)-1-piperazinyl)pyrido[2,3-d]pyrimidin-2(1H)-one], 99.5 | nda μM; under `C=CC(=O)N1CCN(c2nc(=O)n(-c3c(CC)cccc3CC)c3nc(N4CCC(C)C4)c(Cl)cc23)[C@@H](C)C1` (stereo partly drawn) [Example 66-10, 6-chloro-1-(2,6-diethylphenyl)-4-((2S)-2-methyl-4-(2-propenoyl)-1-piperazinyl)-7-(3-methyl-1-pyrrolidinyl)pyrido[2,3-d]pyrimidin-2(1H)-one], 26.4 | nda μM.
As to `C=CC(=O)N1CCN(c2nc(=O)n(-c3c(CC)cccc3CC)c3nc(N4CCC(CC)C4)c(Cl)cc23)[C@@H](C)C1` (stereo partly drawn) [Example 66-11, 6-chloro-1-(2,6-diethylphenyl)-7-(3-ethyl-1-pyrrolidinyl)-4-((2S)-2-methyl-4-(2-propenoyl)-1-piperazinyl)pyrido[2,3-d]pyrimidin-2(1H)-one], the “Coupled exchange IC50 (5 min)” value is 29 | nda μM.
The figure for `C=CC(=O)N1CCN(c2nc(=O)n(-c3c(CC)cccc3CC)c3nc(N4CCC(CC(C)C)C4)c(Cl)cc23)[C@@H](C)C1` (stereo partly drawn) [Example 66-12, 6-chloro-1-(2,6-diethylphenyl)-4-((2S)-2-methyl-4-(2-propenoyl)-1-piperazinyl)-7-(3-(2-methylpropyl)-1-pyrrolidinyl)pyrido[2,3-d]pyrimidin-2(1H)-one] is 65 | nda μM; for `C=CC(=O)N1CCN(c2nc(=O)n(-c3c(CC)cccc3CC)c3nc(N4CCC(F)(F)C4)c(Cl)cc23)[C@@H](C)C1` [Example 66-14, 6-chloro-1-(2,6-diethylphenyl)-7-(3,3-difluoro-1-pyrrolidinyl)-4-((2S)-2-methyl-4-(2-propenoyl)-1-piperazinyl)pyrido[2,3-d]pyrimidin-2(1H)-one] it is 5.51 | nda μM.
The figure for `C=CC(=O)N1CCN(c2nc(=O)n(-c3c(CC)cccc3CC)c3nc(N4CCOC(CC)C4)c(Cl)cc23)[C@@H](C)C1` (stereo partly drawn) [Example 66-15, 6-chloro-1-(2,6-diethylphenyl)-7-(2-ethyl-4-morpholinyl)-4-((2S)-2-methyl-4-(2-propenoyl)-1-piperazinyl)pyrido[2,3-d]pyrimidin-2(1H)-one] is 89.7 | nda μM.
Take `C=CC(=O)N1CCN(c2nc(=O)n(-c3c(CC)cccc3CC)c3nc(N4CCOC5(CCCC5)C4)c(Cl)cc23)[C@@H](C)C1` [Example 66-17, 6-chloro-1-(2,6-diethylphenyl)-4-((2S)-2-methyl-4-(2-propenoyl)-1-piperazinyl)-7-(6-oxa-9-azaspiro[4.5]decan-9-yl)pyrido[2,3-d]pyrimidin-2(1H)-one]: the “Coupled exchange IC50 (5 min)” value is on record as 75.5 | nda μM.
In the case of `C=CC(=O)N1CCN(c2nc(=O)n(-c3c(CC)cccc3CC)c3nc(N4CCOC(C(C)C)C4)c(Cl)cc23)[C@@H](C)C1` (stereo partly drawn) [Example 66-18, 6-chloro-1-(2,6-diethylphenyl)-4-((2S)-2-methyl-4-(2-propenoyl)-1-piperazinyl)-7-(2-(2-propanyl)-4-morpholinyl)pyrido[2,3-d]pyrimidin-2(1H)-one], the “Coupled exchange IC50 (5 min)” value is listed as 76.7 | nda μM.
The figure for `C=CC(=O)N1CCN(c2nc(=O)n(-c3c(CC)cccc3CC)c3nc(N4CCC(CC)(CC)C4)c(Cl)cc23)[C@@H](C)C1` [Example 66-20, 6-chloro-1-(2,6-diethylphenyl)-7-(3,3-diethyl-1-pyrrolidinyl)-4-((2S)-2-methyl-4-(2-propenoyl)-1-piperazinyl)pyrido[2,3-d]pyrimidin-2(1H)-one] is 28.2 | nda μM; for `C=CC(=O)N1CCN(c2nc(=O)n(-c3c(CC)cccc3CC)c3nc(N4CCC(C(C)(C)C)C4)c(Cl)cc23)[C@@H](C)C1` (stereo partly drawn) [Example 66-21] it is 33 | nda μM; for `C=CC(=O)N1CCN(c2nc(=O)n(-c3c(CC)cccc3CC)c3nc(N4CC[C@H](OC)C4)c(Cl)cc23)[C@@H](C)C1` [Example 66-22, 6-chloro-1-(2,6-diethylphenyl)-7-((3S)-3-methoxy-1-pyrrolidinyl)-4-((2S)-2-methyl-4-(2-propenoyl)-1-piperazinyl)pyrido[2,3-d]pyrimidin-2(1H)-one] it is 40.7 | nda μM.
The figure for `C=CC(=O)N1CCN(c2nc(=O)n(-c3c(CC)cccc3CC)c3nc(N4CCC[C@@H]4C#N)c(Cl)cc23)[C@@H](C)C1` [Example 66-23, (2R)-1-(6-chloro-1-(2,6-diethylphenyl)-4-((2S)-2-methyl-4-(2-propenoyl)-1-piperazinyl)-2-oxo-1,2-dihydropyrido[2,3-d]pyrimidin-7-yl)-2-pyrrolidinecarbonitrile] is 160 | nda μM; for `C=CC(=O)N1CCN(c2nc(=O)n(-c3c(CC)cccc3CC)c3nc(N4CCOC(C5CC5)C4)c(Cl)cc23)[C@@H](C)C1` (stereo partly drawn) [Example 66-25, 6-chloro-7-(2-cyclopropyl-4-morpholinyl)-1-(2,6-diethylphenyl)-4-((2S)-2-methyl-4-(2-propenoyl)-1-piperazinyl)pyrido[2,3-d]pyrimidin-2(1H)-one] it is 95 | nda μM; for `C=CC(=O)N1CCN(c2nc(=O)n(-c3c(CC)cccc3CC)c3nc(N4CCC[C@H](C)C4)c(Cl)cc23)[C@@H](C)C1` [Example 66-28, 6-chloro-1-(2,6-diethylphenyl)-7-((3S)-3-methyl-1-piperindinyl)-4-((2S)-2-methyl-4-(2-propenoyl)-1-piperazinyl)pyrido[2,3-d]pyrimidin-2(1H)-one] it is 16.6 | nda μM.
Under `C=CC(=O)N1CCN(c2nc(=O)n(-c3c(CC)cccc3CC)c3nc(N4CCC(C)(C)CC4)c(Cl)cc23)[C@@H](C)C1` [Example 66-29, 6-chloro-1-(2,6-diethylphenyl)-7-(4,4-dimethyl-1-piperindinyl)-4-((2S)-2-methyl-4-(2-propenoyl)-1-piperazinyl)pyrido[2,3-d]pyrimidin-2(1H)-one] stands 25.3 | nda μM.
